According to patent publication EP0864571A1, “APOVINCAMINIC ACID DERIVATIVE AND MEDICINE CONTAINING THE SAME” (Hidaka, Hiroyoshi, priority 1995, dated 1997):
Like-named read-outs stand apart in the source and are kept apart here.

What was measured:
[1] = test system: platelet-rich plasma (PRP); assay: Platelet aggregation inhibition test (ex vivo PRP after oral administration); type: in vivo; conditions: guinea pigs, blood one hour after administration; for Platelet aggregation inhibition rate (%) Collagen: collagen (2.5 µg/mg); for Platelet aggregation inhibition rate (%) Arachidonic acid: arachidonic acid (0.1 mM)
Protocol: A test was conducted using male S1c:Hartley guinea pigs, which were 5 to 7 weeks old and had body weights of from 274 to 554 g, in groups each of which consisted of five guinea pigs. […] One hour after the administration, blood was collected from the abdominal aorta, and a platelet-rich plasma (PRP) was prepared. […]

[2] = Acute toxicity (single intravenous shot, approximate LD50); conditions: mouse, in vivo, male S1C:ICR mice, single shot into caudal vein
Protocol: A test was conducted using male S1C:ICR mice, which were 6 to 7 weeks old and had body weights of from 18 to 36 g, in groups each which consisted of 3 mice.
Predetermined amounts of compounds according to the present invention and a comparative drug (vinpocetine phosphate), each of which had been dissolved in a 5% aqueous solution of glucose, were administered as single shots into the caudal veins of the mice, and the mice were then observed to determine whether they remained under normal conditions or died. Upon expiration of an observation period, their approximate LD50 values were calculated by the provit method.

[3] = test system: superior mesenteric artery; assay: Vascular smooth muscle relaxing activity (potassium chloride-contracted helical artery preparation); set-up: species or system rabbit; conditions: read-out: Vascular smooth muscle relaxing activity (ED50)
Protocol: Each rabbit was sacrificed under exsanguination, and an incision was then made in the flank thereof. […] After this preparation cut was caused to contract with potassium chloride to maintain it under predetermined tension, a given test compound was added cumulatively.

[4] = test system: washed platelets; assay: Platelet aggregation inhibiting activity (washed platelets, collagen, nephelometric analysis); type: cell-based, normal volunteer; conditions: Homo sapiens, read-out: Platelet aggregation inhibiting activity (IC50)
Protocol: Blood, which had been collected from a normal volunteer and had immediately been mixed with 1/10 volume of a 0.38% agueous solution of sodium citrate, was converted into a platelet-rich plasma (PRP) by centrifugation (700 x G, 10 minutes). To the PRP, 1/6 volume of the ACD solution (2.2% sodium citrate, 0.8% citric acid, 2.2% glucose - prepared before use) was added, followed by centrifugation (1,500 x G, 10 minutes). A platelet pellet so obtained was suspended in a modified HEPES Tyrode solution (135 mM sodium chloride, 2.7 mM potassium chloride, 1 mM magnesium chloride, 0.1 mg/mℓ glucose, 20 mM HEPE; pH 7.4). After 1/6 volume of the ACD solution was added to the suspension, further centrifugation was conducted (1,500 x G, 5 minutes). A platelet pellet so obtained was suspended in the modified HEPES Tyrode solution, whereby a washed platelet suspension containing about 300,000 platelets/µℓ therein was obtained.
Into 270-µℓ aliquots of the washed platelet suspension obtained above, 3-µℓ aliquots of solutions of a given test compound at varied concentrations in an appropriate solvent were added, respectively. The resulting mixtures were each preheated at 37°C for 2 minutes and, subsequent to the addition of 30 µℓ of a 20 µg/mℓ solution of collagen, an absorbance was measured by a 4-channel aggregometer ("HEMA Tracer 601"; manufactured by Nicoh Bioscience Co., Ltd.).
As a control, an absorption at the time of maximum aggregation by collagen in the presence of a solvent making use of a given test compound was assumed to be 100 whereas an absorbance before the addition of collagen was assumed to be 0. An inhibition rate (%) was then calculated from an absorbance at the time of maximum aggregation by collagen when the given test compound was added, and a concentration (µM) of the given test compound which achieves 50% inhibition was expressed as "IC50".

[5] = test system: Vertebral blood flow and femoral blood flow; assay: Blood flow enhancement test (anesthetized beagles, electromagnetic flow probe); type: in vivo; conditions: femoral vein administration
Protocol: A test was conducted using male beagles, which were 9 to 13 months old, had body weights of from 9 to 10 kg and had been anesthetized with pentobarbital sodium (25-30 mg/kg), in groups each of which consisted of four beagles. Into one of the femoral veins of each of the beagles, a given test compound in a form dissolved in a 5% agueous solution of glucose was administered at a dose of from 0.1 to 1.0 mg/kg. Vertebral blood flow and femoral blood flow were measured using an electromagnetic flow probe connected to a magnetic flow meter.

[6] = Oryctolagus cuniculus, rabbit superior mesenteric artery contracted with potassium chloride, concentration for 50% relaxation
[7] = washed platelets of a normal volunteer, aggregation by collagen

SMILES	EC50 [3, 6]	IC50 [4, 7]	other results
O=C1CCc2cc(OCCCCc3nnnn3C3CCCCC3)ccc2N1 [Cilostazol, reference compound]			Platelet aggregation inhibition rate (%) Collagen ([1]; oral 100 mg/kg): 12.4%; Platelet aggregation inhibition rate (%) Arachidonic acid ([1]; oral 300 mg/kg): 22.1%; Platelet aggregation inhibition rate (%) Collagen ([1]; oral 300 mg/kg): 74.7%
CCOC(=O)C1=CC2(CC)CCCN3CCc4c(n1c1cc(NS(=O)(=O)c5ccccc5)ccc41)C32 (stereo not shown) [Compound 1, ethyl 11-phenylsulfonylamino-apovin-caminate]			LD50 [2]: 85 mg/kg; Platelet aggregation inhibition rate (%) Arachidonic acid ([1]; oral 100 mg/kg): 45.2%; Platelet aggregation inhibition rate (%) Collagen ([1]; oral 100 mg/kg): 85.4%
CCC12C=C(C(=O)OC)n3c4c(c5ccc(NS(=O)(=O)c6ccccc6)cc53)CCN(CCC1)C42 (stereo not shown) [Compound 2, Methyl 11-phenylsulfonylamino-apovincaminate]	2100 nM	380 nM	
CCC12C=C(C(=O)OC)n3c4c(c5ccc(NS(=O)(=O)c6ccc(Cl)cc6)cc53)CCN(CCC1)C42 (stereo not shown) [Compound 3, Methyl 11-(4-chlorophenyl)sulfonylamino-apovincaminate]	1700 nM	250 nM	
CCOC(=O)C1=CC2(CC)CCCN3CCc4c(n1c1cc(NS(=O)(=O)c5ccc(Br)cc5)ccc41)C32 (stereo not shown) [Compound 4, Ethyl 11-(4-bromophenyl)sulfonylamino-apovincaminate]	1000 nM	760 nM	
CCC12C=C(C(=O)OC(C)C)n3c4c(c5ccc(NS(=O)(=O)c6ccc(Cl)cc6)cc53)CCN(CCC1)C42 (stereo not shown) [Compound 5, Isopropyl 11-(4-chlorophenyl)sulfonylamino-apovincaminate]	1300 nM	940 nM	
CCCOC(=O)C1=CC2(CC)CCCN3CCc4c(n1c1cc(NS(=O)(=O)c5ccc(Cl)cc5)ccc41)C32 (stereo not shown) [Compound 6, Propyl 11-(4-chlorophenyl)sulfonylamino-apovincaminate]	1300 nM	960 nM	
CCOC(=O)C1=CC2(CC)CCCN3CCc4c(n1c1cc(NS(=O)(=O)c5ccc(F)cc5)ccc41)C32 (stereo not shown) [Compound 7, Ethyl 11-(4-fluorophenyl)sulfonylamino-apovincaminate]	2000 nM	910 nM	
CCOC(=O)C1=CC2(CC)CCCN3CCc4c(n1c1cc(NS(=O)(=O)c5ccc(I)cc5)ccc41)C32 (stereo not shown) [Compound 8, Ethyl 11-(4-iodophenyl)sulfonylamino-apovincaminate]	1300 nM	810 nM	
CCOC(=O)C1=CC2(CC)CCCN3CCc4c(n1c1cc(NS(=O)(=O)c5cc(Cl)ccc5Cl)ccc41)C32 (stereo not shown) [Compound 9, Ethyl 11-(2,5-dichlorophenyl)sulfonylamino-apovincaminate]	900 nM	880 nM	
CCOC(=O)C1=CC2(CC)CCCN3CCc4c(n1c1cc(NS(=O)(=O)c5cccc6ccccc56)ccc41)C32 (stereo not shown) [Compound 10, Ethyl 11-(1-naphthalene)sulfonylamino-apovincaminate]	2000 nM	9200 nM	
CCOC(=O)C1=CC2(CC)CCCN3CCc4c(n1c1cc(NS(=O)(=O)c5ccc(C)cc5)ccc41)C32 (stereo not shown) [Compound 11, Ethyl 11-(4-toluene)sulfonylamino-apovincaminate]			Bloodflow increment (%) Femoral artery ([5]; dose 0.1 mg/kg): 2.9%; Bloodflow increment (%) Vertebral artery ([5]; dose 0.1 mg/kg): 5.4%; Bloodflow increment (%) Femoral artery ([5]; dose 0.3 mg/kg): 5.1%; Bloodflow increment (%) Vertebral artery ([5]; dose 0.3 mg/kg): 11.8%; Bloodflow increment (%) Femoral artery ([5]; dose 1.0 mg/kg): 4.5%; Bloodflow increment (%) Vertebral artery ([5]; dose 1.0 mg/kg): 32.5%; LD50 [2]: 125 mg/kg; EC50 ([3]; Oryctolagus cuniculus): 1000 nM; Platelet aggregation inhibition rate (%) Arachidonic acid ([1]; oral 100 mg/kg): 33.9%; Platelet aggregation inhibition rate (%) Collagen ([1]; oral 100 mg/kg): 49.1%; IC50 [4]: 50 nM
CCOC(=O)C1=CC2(CC)CCCN3CCc4c(n1c1cc(NS(=O)(=O)c5c(C)cc(C)cc5C)ccc41)C32 (stereo not shown) [Compound 12, Ethyl 11-mesytylenesulfonylamino-apovincaminate]			LD50 [2]: 50 mg/kg; Platelet aggregation inhibition rate (%) Collagen ([1]; oral 100 mg/kg): 13.0%
CCOC(=O)C1=CC2(CC)CCCN3CCc4c(n1c1cc(NS(=O)(=O)Cc5ccccc5)ccc41)C32 (stereo not shown) [Compound 13, Ethyl 11-benzylsulfonylamino-apovincaminate]	300 nM	4400 nM	
CCOC(=O)C1=CC2(CC)CCCN3CCc4c(n1c1cc(NS(=O)(=O)c5ccc(NC(C)=O)cc5)ccc41)C32 (stereo not shown) [Compound 14, Ethyl 11-(4-acetylaminophenyl)sulfonyl-amino-apovincaminate]	1200 nM	470 nM	
CCOC(=O)C1=CC2(CC)CCCN3CCc4c(n1c1cc(NS(=O)(=O)c5cccc6cccnc56)ccc41)C32 (stereo not shown) [Compound 15, Ethyl 11-(8-quinoline)sulfonylamino-apovincaminate]	500 nM	4100 nM	
CCOC(=O)C1=CC2(CC)CCCN3CCc4c(n1c1cc(NS(=O)(=O)c5ccc(OC)cc5)ccc41)C32 (stereo not shown) [Compound 16, Ethyl 11-(4-methoxyphenyl) sulfonylamino-apovincaminate]	700 nM	1000 nM	
CCOC(=O)C1=CC2(CC)CCCN3CCc4c(n1c1cc(NS(=O)(=O)c5cc(C)ccc5C)ccc41)C32 (stereo not shown) [Compound 17, Ethyl 11-(2,5-dimethylphenyl)sulfonyl-amino-apovincaminate]	710 nM	720 nM	
CCOC(=O)C1=CC2(CC)CCCN3CCc4c(n1c1cc(NS(=O)(=O)c5cccs5)ccc41)C32 (stereo not shown) [Compound 18, Ethyl 11-(2-thiophene)sulfonylamino-apovincaminate]	630 nM	400 nM	
CCOC(=O)C1=CC2(CC)CCCN3CCc4c(n1c1cc(NS(=O)(=O)c5ccccc5C(=O)OC)ccc41)C32 (stereo not shown) [Compound 19, Ethyl 11-(2-methoxycarbonylphenyl)sulfonylamino-apovincaminate]	200 nM	1800 nM	
CCOC(=O)C1=C[C@]2(CC)CCCN3CCc4c(n1c1cc(NS(=O)(=O)c5c(C(C)C)cc(C(C)C)cc5C(C)C)ccc41)[C@@H]32 [Compound 20, Ethyl 11-(2,4,6-triisopropylphenyl)sulfonylamino-apovincaminate]			EC50 ([3]; rabbit superior mesenteric artery contracted with potassium chloride, concentration for 50% relaxation): 930 nM
CCOC(=O)C1=CC2(CC)CCCN3CCc4c(n1c1cc(NS(=O)(=O)c5ccc(OC)cc5[N+](=O)[O-])ccc41)C32 (stereo not shown) [Compound 21, Ethyl 11-(4-methoxy-2-nitrophenyl)sulfonylamino-apovincaminate]	2100 nM	400 nM	
CCOC(=O)C1=CC2(CC)CCCN3CCc4c(n1c1cc(NS(=O)(=O)c5ccc6ccccc6c5)ccc41)C32 (stereo not shown) [Compound 22, Ethyl 11-(2-naphthalene)sulfonylamino-apovincaminate]	860 nM	280 nM	
CCOC(=O)C1=CC2(CC)CCCN3CCc4c(n1c1cc(NS(=O)(=O)c5c(F)c(F)c(F)c(F)c5F)ccc41)C32 (stereo not shown) [Compound 23, Ethyl 11-(2,3,4,5,6-pentafluorophenyl)sulfonylamino-apovincaminate]	1200 nM	580 nM	
CCOC(=O)C1=CC2(CC)CCCN3CCc4c(n1c1cc(NS(=O)(=O)c5cccc([N+](=O)[O-])c5)ccc41)C32 (stereo not shown) [Compound 24, Ethyl 11-(3-nitrophenyl)sulfonylamno-apovincaminate]			EC50 ([3]; Oryctolagus cuniculus): 200 nM; IC50 [4]: 900 nM
CCOC(=O)C1=CC2(CC)CCCN3CCc4c(n1c1ccccc41)C32 (stereo not shown) [Vinpocetine phosphate, vinpocetine phosphate, reference compound]			LD50 [2]: 60 mg/kg
